Results from ChEMBL document CHEMBL1143118, “6-Acetyl-7,7-dimethyl-5,6,7,8-tetrahydropterin is an activator of nitric oxide synthases” (Bioorg Med Chem Lett, 2008).
Active and inactive are the calls of the source. The rule behind the calls is not given here.

Experiments:
[1] = biological target: Nitric oxide synthase 1 (Homo sapiens) (UniProt P29475); experiment: Activity of tetrahydrobiopterin free nNOS assessed as increase in NO in presence of NADPH and arginine at 1 to 200 uM
Aortic ring [2] = experiment: Relaxation of phenyphrine-induced constriction in rat aortic rings depleted with tetrahydrobiopterin; assay type: functional, tissue-based; details: Aorta
[3] = biological target: Nitric oxide synthase 1 (Homo sapiens) (UniProt P29475); experiment: Activity of tetrahydrobiopterin free nNOS expressed in Escherichia coli at 1 to 100 uM
Aortic ring [4] = experiment: Relaxation of phenyphrine-induced constriction in rat aortic rings; assay type: functional, tissue-based; details: Aorta

Chain of Nitric oxide synthase 1 (Homo sapiens) (P29475 whole entry): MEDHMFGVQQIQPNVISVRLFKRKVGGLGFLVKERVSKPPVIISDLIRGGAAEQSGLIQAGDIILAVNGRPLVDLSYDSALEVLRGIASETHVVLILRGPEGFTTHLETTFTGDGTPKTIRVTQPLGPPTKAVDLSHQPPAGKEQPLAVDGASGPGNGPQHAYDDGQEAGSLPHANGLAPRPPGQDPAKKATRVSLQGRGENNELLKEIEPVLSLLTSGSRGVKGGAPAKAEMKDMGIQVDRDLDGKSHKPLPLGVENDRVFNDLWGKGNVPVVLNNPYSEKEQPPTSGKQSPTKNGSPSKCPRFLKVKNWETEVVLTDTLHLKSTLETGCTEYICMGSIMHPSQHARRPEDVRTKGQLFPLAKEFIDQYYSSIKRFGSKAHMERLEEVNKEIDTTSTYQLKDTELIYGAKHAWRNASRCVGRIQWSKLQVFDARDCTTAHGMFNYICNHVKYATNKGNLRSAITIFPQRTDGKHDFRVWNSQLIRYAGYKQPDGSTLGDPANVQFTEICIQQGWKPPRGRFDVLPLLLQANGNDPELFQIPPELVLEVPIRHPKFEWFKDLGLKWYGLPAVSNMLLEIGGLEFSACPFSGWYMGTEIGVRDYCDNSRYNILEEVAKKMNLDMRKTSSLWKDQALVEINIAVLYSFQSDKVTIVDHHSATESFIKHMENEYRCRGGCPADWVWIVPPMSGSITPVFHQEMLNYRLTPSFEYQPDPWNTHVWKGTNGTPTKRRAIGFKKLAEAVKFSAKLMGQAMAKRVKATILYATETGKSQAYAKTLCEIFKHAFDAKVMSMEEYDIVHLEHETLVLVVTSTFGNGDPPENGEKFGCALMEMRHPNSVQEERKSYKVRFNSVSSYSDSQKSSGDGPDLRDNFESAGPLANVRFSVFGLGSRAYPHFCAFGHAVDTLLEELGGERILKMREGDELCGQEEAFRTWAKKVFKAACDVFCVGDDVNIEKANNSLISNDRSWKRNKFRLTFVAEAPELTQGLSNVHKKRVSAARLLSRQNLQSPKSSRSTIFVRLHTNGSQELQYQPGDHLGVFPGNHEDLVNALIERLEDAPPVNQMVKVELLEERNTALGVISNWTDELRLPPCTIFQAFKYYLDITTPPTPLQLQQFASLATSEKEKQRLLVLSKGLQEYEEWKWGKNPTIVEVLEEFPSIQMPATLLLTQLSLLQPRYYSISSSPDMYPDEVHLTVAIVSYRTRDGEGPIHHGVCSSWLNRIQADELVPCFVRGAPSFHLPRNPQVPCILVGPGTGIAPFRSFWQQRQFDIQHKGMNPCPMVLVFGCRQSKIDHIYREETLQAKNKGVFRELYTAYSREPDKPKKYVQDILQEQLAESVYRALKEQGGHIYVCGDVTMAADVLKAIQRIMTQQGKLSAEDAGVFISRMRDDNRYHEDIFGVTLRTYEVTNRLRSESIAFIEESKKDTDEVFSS

In the case of `CC(=O)C1Nc2c(nc(N)[nH]c2=O)NC1(C)C` (centres undefined), the Activity [1] is reported as “Active”.

For `CC(=O)C1=Nc2c(nc(N)[nH]c2=O)NC1(C)C`, the Activity (Aortic ring [2]) was “Active” and the Activity [3] was “inactive”.

`C[C@H](O)[C@H](O)[C@H]1CNc2nc(N)[nH]c(=O)c2N1` was tested, and the Activity (Aortic ring [4]) was “inactive”.
